Measurements published in patent US10829441B2, “Reactive oxygen species-sensitive nitric oxide synthase inhibitors for the treatment of ischemic stroke” (The University of Toledo, priority 2017, dated 2020).
“And” between values parts separate entries of the source, which are not always exact repeats. Equal entries are not always repeated. “Also recorded” adds a separate entry of the source.

How the values were obtained:
[1] = test system: cerebral blood flow (CBF); assay: Laser Doppler cerebral blood flow (CBF) over the MCA of anesthetized mice; assay type: in vivo, C57BL/6 mice; conditions: for time point at which CBF increased: isoamyl nitrate vs low dose of 5 (1 mg/kg), intravenous
Protocol: (§1) Animals were anesthetized and the incision was performed as above to expose the temporal bone, through which the MCA was visible. The end of a fiber optic cable fitted to a MoorVMS-LDF Laser Doppler Monitor (Moor Instruments) was positioned in place over the MCA. The baseline CBF as flux was monitored for 5 min prior to intravenous injection by lateral tail vein of normal saline vehicle, […] (20 mg/kg), or 5. Measurements were taken every 5 minutes in triplicate for each animal, and reported as ratio to baseline. Animals were sacrificed at 25 min by CO2 inhalation, blood was collected into K2EDTA coated tubes (BD Microtainer®), and brains were rapidly dissected out and frozen on dry ice for LC-MS/MS analysis.

[2] = test system: LPS-stimulated SIM-A9 cells; assay: Griess assay of nitrite in LPS-stimulated SIM-A9 microglia; assay type: cell-based, mouse; conditions: LPS 100 ng/mL; for nitrite / NO production after LPS (in words): 1.0 μM to 50 μM, 24 hr (FIG. 14); for nitrite after LPS (in words): 24 hr (FIG. 15B); for decrease in nitrite: 24 hr
Protocol: (§2) Human neuroblastoma SH-SY5Y cells and SIM-A9 mouse microglia (ATCC) were separately cultured on poly-D-lysine coated plates in 1:1 Dulbecco's Modified Eagle Medium/Ham's F12 (DMEM/F12) medium containing 5% fetal bovine serum, 5% horse serum, and penicillin-streptomycin. Cultures were stored in a 37° C. incubator with a 5% CO2 atmosphere. Cells were allowed to adhere overnight prior to subjection to experimental systems. 1×10^6 cells SH-SY5Y cells on 96-well plates were used for OGD experiments, and SIM-A9 cells were plated at a density of 1×10^6 on 24-well plates for Griess experiments.
SIM-A9 cells were treated with 100 ng/mL lipopolysaccharide (LPS, Sigma) along with vehicle or drug treatment for 24 hr. Conditioned medium was then diluted 1:1 with griess reagent (0.4% naphthylethylenediamine dihydro-chloride, and 4% sulphanilamide in 10% phosphoric acid), and analyzed by colorimetry at 540 nm after […]. Nitrite levels were reported as a ratio to LPS-treated, vehicle control.

[3] = Plasma and brain levels of 5 and 6 by LC-MS/MS 25 min after intravenous administration; assay type: in vivo, C57BL/6 mice
Protocol: as §1
(§3) Synthesized 5, and purchased 4(1H-Imidazol-1-yl)benzaldehyde (IBA, Sigma) were used to determine LC-MS/MS fragmentation. A solution of 5+ONOO^−/HCl from EPR studies was used for 6 fragmentation. MRM analysis of IBA (m/z 173.10→91.10, 104.10, 117.05; RT: 4.13 min), 5 (m/z 248.20→148.00, 134.15, 190.05; RT: 4.81 min), and 6 (m/z 177.00→119.10, 90.95, 65.15; RT: 3.87 min) were determined. A standard curve for 5 was generated using pure samples applied to blank matrix (0.01 μM, 0.1 μM, 0.5 μM, 1.0 μM, and 5.0 μM; R2=0.99) using the above HPLC solvents and LC curve at 0.4 mL/min.
(§4) In vitro supernatant samples were spiked with internal standard (200 μL 500 nM IBA in 2% FA) and used as collected, while cells were detached by trypsin, centrifuged (14 k rpm, 5 min, 4° C.) to isolate the pellet, then lysed by sonication (Sonic Dismembrator 500, Fisher) in 1 mL cold PBS+internal standard. Blood samples (100 μL) were spiked with internal standard, and centrifuged to collect the supernatant. Brain samples were weighed, homogenized by a Bullet Blender Storm (Next Advance Inc.) in 500 μL cold PBS+internal standard for 1 min at 4° C., then centrifuged to collect the supernatant. All samples were then worked up by solid phase extraction (Evolute Ex-press ABN cartridge, 30 mg/l mL, Biotage) using a Vac-master manifold (Biotage). Columns were washed with dH2O (1 mL), and analytes were eluted with MeOH (1 mL) and evaporated to dryness by high flow air purge. Samples were reconstituted in 200 μL 95:5 mobile phase A:B and analyzed by LC-MS/MS (2.0 μL injection volume). All samples were run in duplicate, and AUC for 5 and 6 were normalized to the intra-run IBA AUC to account for loss during workup. 5 concentrations were determined using std. curve, while 6 was expressed as a percentage of 5 AUC.

SH-SY5Y cells [4] = assay: OGD-induced formation of 6 from 5 in SH-SY5Y cells by LC-MS/MS; assay type: cell-based, Human; conditions: for level of 6 as 6:5 AUC: cell lysate (intracellular); for level of 6: supernatant
Protocol: (§5) Growth medium was removed from SH-SY5Y cells and replaced with sterile HBSS (140 mM NaCl, 3.5 mM KCl, 0.4 mM KH2PO4, 5 mM NaHCO3, 1.3 mM CaCl2, 1.2 mM MgSO4, 20 mM HEPES, pH 7.4, bubbled with 95%/5% N2/CO2), and placed in an air-tight container subsequently purged three times with 95%/5% N2/CO2. The container was then placed in a 37° C. incubator for 1.5 hr. After OGD, the cells were returned to a normoxic environment, and medium was replaced with growth medium and vehicle or treatment for 24 hr to simulate reperfusion. Sham cells were left in growth medium under a normoxic environment. Viability was measured by adding 10% Presto-Blue® Cell Viability Reagent (Thermo Fisher) for 30 min, and reading fluorescence at 560 nm/590 nm excitation/emission. Viability is reported as a ratio to vehicle-treated control, and readings result from separate OGD experiments (e.g. n=6 was from 6 different OGD assays). The experimental furoxan IS-1-41 was used as a positive control for OGD viability due to its reproducible protection in this paradigm.
as §3, §4

SH-SY5Y cells [5] = assay: Oxygen-glucose deprivation (OGD) viability of SH-SY5Y cells (PrestoBlue); assay type: cell-based, Human; conditions: for viability relative to vehicle (in words) / viability, ratio to vehicle control: 1.5 hr OGD, 24 hr treatment
Protocol: as §2, §5

[6] = HPLC-PDA analysis of nitrone decomposition in radical-generating systems; assay type: physicochemical; conditions: for decomposition to aldehyde in .OH (Fe—H2O2) system (in words) / decomposition to aldehyde in O2.^−/HO2. (KO2) system (in words) / decomposition to aldehyde in ONOO^−/HCl system (in words): 24 hr incubation at 37° C.
Protocol: To a stirring solution of 5 (5.0 mg, 1.0 eq) in 785 μL PBS was added 20 μL 6 N HCl at 37° C. Peroxynitrite (200 μL of a 50 mM solution in 0.3 M NaOH, 0.5 eq) was added in 50 μL aliquots over 5 min. The reaction was allowed to stir for 1 hr and monitored by HPLC-PDA. The solution was extracted with CH2Cl2 (2×0.5 mL) and the aqueous fractions were pooled then lyophilized. Addition of ACN (1.0 mL) to the white solid followed by filtration allowed separation from the insoluble salts. Lyophilization afforded 6 as a white solid (1.2 mg, 33.7%), NMR (CD3OD, 400 MHz): δ 10.04 (1H, s), δ 7.93-7.95 (2H, m), δ 7.71-7.65 (2H, m), 4.58 (2H, s), δ 2.30 (3H, s).
EPR spectra were collected at ambient temperature with microwave power 12.6 mW, frequency 9.86 GHz, receiver gain 1.0×10^5 or 1.0×10^4, modulation amplitude 1 G, scan time 20.48 sec, time constant 40.96 msec, and sweep width 120 G. Phosphate buffered saline (PBS) used for EPR was supplemented with diethylenetriaminepent-acetic acid (DTPA, 100 μM). ROS-generating solutions were rapidly added to solutions of indicated spin trap and taken up in 50 μL glass capillary tubes for EPR spectral acquisition. For HPLC-PDA analysis, solutions were allowed to incubate for 24 hr at 37° C., then diluted 1:1000 in 95:5 mobile phase A:B, and analyzed as above. Benzaldehyde (Sigma) was run separately as a control to compare to PBN-ROS systems and confirm PBN decomposition.
A 50 μL final 20% PBS/DMSO solution of 35 mM 5 or PBN contained 10 μL saturated KO2 DMSO.
A 50 μL final 30% PBS/DMSO solution of 35 mM 5 or PBN contained 90 mM FeSO4 and 1% H2O2.
A solution of ONOO^− in 0.3 M NaOH (Cayman Chemical) was determined to be 50 mM by absorbance at 302 nm using the literature extinction coefficient (1670 M^−1cm^−1). A 50 μL final 30% PBS/DMSO solution of 5 or PBN contained 10 mM ONOO^− at pH˜6 (HCl).

[7] = test system: phospho-Akt/total Akt ratio; assay: Western blot of SH-SY5Y cells exposed to OGD: pAkt/Akt; assay type: cell-based, Human; conditions: 1.0 μM, 24 hr treatment
cleaved caspase-3 = assay: Western blot of SH-SY5Y cells exposed to OGD: cleaved caspase-3; assay type: cell-based, Human; conditions: 1.0 μM, 24 hr treatment, vs vehicle
3-Nitrotyrosine (3-NT) = assay: Western blot of SH-SY5Y cells exposed to OGD: 3-nitrotyrosine; assay type: cell-based, Human; conditions: 1.0 μM, 24 hr treatment, vs vehicle
[8] = test system: permanent MCA occlusion (pMCAO); assay type: in vivo
[9] = 25 min after intravenous 5, n=6

CC(C)CCO[N+](=O)[O-] [isoamyl nitrate, reference compound]
CBF over 20 min ([1]; 20 mg/kg intravenous): 111%±4.0% | time point at which CBF increased [1]: 20 min

CC(=N)NCc1cccc(CN)c1 [1400W, reference compound]
nitrite / NO production after LPS (in words) [2]: anti-inflammatory ability | nitrite after LPS (in words) ([2]; 1.0 μM): attenuated

CC(=N)NCc1cccc(C=O)c1 [compound 6, N-[(3-formylphenyl)methyl]ethanimidamide]
level of 6 in brain [3, 9]: 24.5%±0.1% | level of 6 in plasma [3, 9]: 12.7%±0.2% | level of 6 as 6:5 AUC (SH-SY5Y cells [4]; OGD-exposed cells treated 24 hr with 10 μM 5): 129 % 6:5 AUC | level of 6 as 6:5 AUC (SH-SY5Y cells [4]; sham cells treated 24 hr with 10 μM 5): 29 % 6:5 AUC | level of 6 (SH-SY5Y cells [4]; OGD-exposed cells treated with 5): 18.6 % of 5 AUC | level of 6 (SH-SY5Y cells [4]; sham cells treated with 5): 7.88 % of 5 AUC | nitrite / NO production after LPS (in words) [2]: dose-dependent decrease in nitrite | decrease in nitrite ([2]; 1.0 μM): ~19% | decrease in nitrite ([2]; 50 μM): −33%

CC(C)(C)[N+]([O-])=Cc1ccccc1 [PBN, N-tert-butyl-α-phenylnitrone, reference compound]
viability relative to vehicle (in words) (SH-SY5Y cells [5]; 0.05 μM to 100 μM): did not approach significance at any concentration tested | decomposition to aldehyde in .OH (Fe—H2O2) system (in words) [6]: minor formation | decomposition to aldehyde in O2.^−/HO2. (KO2) system (in words) [6]: Significant BnA formation | decomposition to aldehyde in ONOO^−/HCl system (in words) [6]: Significant BnA formation | phospho-Akt/total Akt ratio (in words) [7]: increase was also observed; also recorded: increase in Akt phosphorylation, although not significant | nitrite / NO production after LPS (in words) [2]: not observed to cause a reduction in nitrate | nitrite after LPS (in words) ([2]; 1.0 μM): attenuated

CC(=N)NCc1cccc(/C=[N+](\[O-])C(C)(C)C)c1 [compound 5, N-tert-butyl-α-(3-[ethanimidamidomethyl]phenyl)nitrone]
CBF over 20 min ([1]; 1 mg/kg intravenous): 126%±4.6% | CBF over 20 min ([1]; 10 mg/kg intravenous): 102%±0.7% | time point at which CBF increased [1]: 5 min | cleaved caspase-3 reduction (cleaved caspase-3): 47% | 3-NT ameliorated (3-Nitrotyrosine (3-NT)): 48% | viability, ratio to vehicle control (SH-SY5Y cells [5]; 0.1 μM): 1.21 times greater than vehicle | viability, ratio to vehicle control (SH-SY5Y cells [5]; 1.0 μM): 2.57 times greater than vehicle | viability relative to vehicle (in words) (SH-SY5Y cells [5]; 100 μM): decline to baseline; also recorded: not observed to be toxic, but rather non-neuroprotective | optimal dose (highest neuroprotection) (SH-SY5Y cells [5]; dose-finding study 0.05 μM to 100 μM): 1.0 µM | conversion of 5 to 6 by HPLC-PDA ([6]; 0.50 eq ONOO^−, PBS/HCl pH 6, 37° C., after one hour): 95.4% | decomposition to aldehyde in .OH (Fe—H2O2) system (in words) [6]: substantial formation of 6; also recorded: Minor 6 formation | decomposition to aldehyde in O2.^−/HO2. (KO2) system (in words) [6]: substantial formation of 6; also recorded: significant 6 formation | decomposition to aldehyde in ONOO^−/HCl system (in words) [6]: complete conversion; also recorded: no observed 5 remaining | phospho-Akt/total Akt ratio ([7]; vs vehicle): 4.1 times higher | Kp at 25 min ([3]; C57BL/6, mouse, in vivo): 0.029 ± 0.01 | half-life (in words) ([3]; mouse, in vivo): short half-life | cell permeability (in words) (SH-SY5Y cells [4]): cell permeable | tolerability / adverse effects ([8]; 10 mg/kg and 1 mg/kg intravenous): well tolerated | forelimb grip strength (in words) ([8]; 24, 48, 72 hr after pMCAO): improved grip strength | rota rod performance (in words) ([8]; 24, 48, 72 hr after pMCAO): No significant differences | Neurological deficit scoring (NDS), 28-point system ([8]; 72 hr after pMCAO, 10 mg/kg iv at 3 and 6 hr, then 1 mg/kg twice daily): 4.2±0.4 | decrease in infarct volume compared to vehicle ([8]; TTC staining 72 hr after pMCAO, 10 mg/kg iv at 3 and 6 hr, then 1 mg/kg twice daily): > 30% and 37% | nitrite / NO production after LPS (in words) [2]: not observed to lower NO production | nitrite after LPS (in words) ([2]; 1.0 μM): attenuated
